Measurements published in ChEMBL document CHEMBL5143711, “Glenthmycins A-M: Macrocyclic Spirotetronate Polyketide Antibacterials from the Australian Pasture Plant-Derived Streptomyces sp. CMB-PB041” (J Nat Prod, 2022).

Assays:
[1] = system: Staphylococcus aureus; experiment: Antibacterial activity against methicillin-resistant Staphylococcus aureus ATCC 33591 incubated for 16 to 24 hrs by broth microdilution based spectrophotometric analysis; format: functional, organism-based
[2] = system: Staphylococcus aureus; experiment: Antibacterial activity against Staphylococcus aureus ATCC 25923 incubated for 16 to 24 hrs by broth microdilution based spectrophotometric analysis; format: functional, organism-based
[3] = system: Enterococcus faecalis; experiment: Antibacterial activity against Enterococcus faecalis incubated for 16 to 24 hrs by broth microdilution based spectrophotometric analysis; format: functional, organism-based
[4] = system: Staphylococcus aureus; experiment: Antibacterial activity against methicillin-resistant Staphylococcus aureus ATCC 43300 incubated for 16 to 24 hrs by broth microdilution based spectrophotometric analysis; format: functional, organism-based
[5] = system: Enterococcus faecium; experiment: Antibacterial activity against vancomycin-resistant Enterococcus faecium incubated for 16 to 24 hrs by broth microdilution based spectrophotometric analysis; format: functional, organism-based
[6] = system: Candida albicans; experiment: Antifungal activity against Candida albicans ATCC 10231 incubated for 16 to 24 hrs by broth microdilution based spectrophotometric analysis; format: functional, organism-based
[7] = system: Mycobacterium tuberculosis; experiment: Antibacterial activity against Mycobacterium tuberculosis H37Ra ATCC 25177 incubated for 16 to 24 hrs by broth microdilution based spectrophotometric analysis; format: functional, organism-based
[8] = Cytotoxicity against human SW-620 cells and measured after 48 hrs by MTT assay; format: toxicity, cell-based
[9] = Cytotoxicity against human NCI-H460 cells and measured after 48 hrs by MTT assay; format: toxicity, cell-based
[10] = system: Escherichia coli; experiment: Antibacterial activity against Escherichia coli ATCC 11775 incubated for 16 to 24 hrs by broth microdilution based spectrophotometric analysis; format: functional, organism-based

SMILES | IC50 [1] | IC50 [2] | IC50 [3] | IC50 [4] | IC50 [5] | IC50 [6] | IC50 [7] | IC50 at 48 h [8] | IC50 at 48 h [9] | IC50 [10]
CCCCCCCCCCCC(=O)O[C@H]1CC[C@H](C)[C@@H]2[C@@H]1C=C(C)[C@H]1/C(C)=C/CC/C(C)=C/[C@]3(C)C=C(C)[C@H](C)C[C@]34OC(=O)C(=C4O)C(=O)[C@@]21C | > 30 µM | > 30 µM | > 30 µM | > 30 µM | > 30 µM | – | – | – | – | –
CC1=C[C@H]2[C@@H]([C@@H](C)CC[C@@H]2O[C@@H]2O[C@H](C)[C@@H](O)[C@@H](O)[C@H]2O)[C@]2(C)C(=O)C3=C(O)[C@@]4(C[C@@H](C)C(C(=O)O)=C[C@@]4(C)/C=C(\C)CC/C=C(\C)[C@H]12)OC3=O | > 30 µM | > 30 µM | > 30 µM | > 30 µM | > 30 µM | – | – | – | – | –
COc1cc(C)c(C(=O)O[C@H]2[C@@H](O)[C@@H](O)[C@H](O[C@H]3CC[C@H](C)[C@@H]4[C@@H]3C=C(C)[C@H]3/C(C)=C/CC/C(C)=C/[C@]5(C)C=C(C(=O)O)[C@H](C)C[C@]56OC(=O)C(=C6O)C(=O)[C@@]43C)O[C@@H]2C)c(O)c1 | > 30 µM | > 30 µM | > 30 µM | > 30 µM | > 30 µM | > 30 µM | > 30 µM | > 30 µM | > 30 µM | > 30 µM
COc1cc(C)c(C(=O)O[C@H]2[C@H](O[C@H]3CC[C@H](C)[C@@H]4[C@@H]3C=C(C)[C@H]3/C(C)=C/CC/C(C)=C/[C@]5(C)C=C(C(=O)O)[C@H](C)C[C@]56OC(=O)C(=C6O)C(=O)[C@@]43C)O[C@H](C)[C@@H](O)[C@H]2O)c(O)c1 | 10.2 µM | 10 µM | 13 µM | 15.2 µM | 7.3 µM | > 30 µM | > 30 µM | > 30 µM | > 30 µM | > 30 µM
CC(=O)O[C@H]1CC[C@H](C)[C@@H]2[C@@H]1C=C(C)[C@H]1/C(C)=C/CC/C(C)=C/[C@@H]3C=C(C(=O)O)[C@H](C)C[C@]34OC(=O)C(=C4O)C(=O)[C@@]21C | > 30 µM | > 30 µM | > 30 µM | > 30 µM | > 30 µM | – | – | – | – | –
CC(=O)O[C@H]1CC[C@H](C)[C@@H]2[C@@H]1C=C(C)[C@H]1/C(C)=C/CC/C(C)=C/[C@]3(C)C=C(C)[C@H](C)C[C@]34OC(=O)C(=C4O)C(=O)[C@@]21C | 0.9 µM | 1.2 µM | 3.7 µM | 1.1 µM | 10 µM | > 30 µM | > 30 µM | > 30 µM | > 30 µM | > 30 µM
CCCCC(=O)O[C@H]1CC[C@H](C)[C@@H]2[C@@H]1C=C(C)[C@H]1/C(C)=C/CC/C(C)=C/[C@]3(C)C=C(C)[C@H](C)C[C@]34OC(=O)C(=C4O)C(=O)[C@@]21C | 1.4 µM | 0.2 µM | 0.5 µM | 1.6 µM | 1.6 µM | – | – | – | – | –
CC(=O)O[C@H]1CC[C@H](C)[C@@H]2[C@@H]1C=C(C)[C@H]1/C(C)=C/CC/C(C)=C/[C@]3(C)C=C(C(=O)O)[C@H](C)C[C@]34OC(=O)C(=C4O)C(=O)[C@@]21C | > 30 µM | > 30 µM | > 30 µM | > 30 µM | > 30 µM | – | – | – | – | –
CC1=C[C@@]2(C)/C=C(\C)CC/C=C(\C)[C@@H]3C(C)=C[C@H]4[C@@H]([C@@H](C)CC[C@@H]4O)[C@]3(C)C(=O)C3=C(O)[C@@]2(C[C@H]1C)OC3=O | 8.4 µM | 16.4 µM | > 30 µM | 3.8 µM | > 30 µM | > 30 µM | > 30 µM | > 30 µM | > 30 µM | > 30 µM
COc1cc(C)c(C(=O)O[C@H]2[C@@H](O)[C@H](O[C@H]3CC[C@H](C)[C@@H]4[C@@H]3C=C(C)[C@H]3/C(C)=C/CC/C(C)=C/[C@]5(C)C=C(C(=O)O)[C@H](C)C[C@]56OC(=O)C(=C6O)C(=O)[C@@]43C)O[C@H](C)[C@H]2O)c(O)c1 | 12.2 µM | 23.2 µM | 4 µM | 7.3 µM | 13.1 µM | > 30 µM | > 30 µM | > 30 µM | > 30 µM | > 30 µM
COc1cc(C)c(C(=O)N[C@@H]2[C@@H](C)O[C@@H](O[C@H]3CC[C@H](C)[C@@H]4[C@@H]3C=C(C)[C@H]3/C(C)=C/CC/C(C)=C/[C@]5(C)C=C(C(=O)O)[C@H](C)C[C@]56OC(=O)C(=C6O)C(=O)[C@@]43C)[C@H](O)[C@]2(C)O)c(O)c1 | 2.2 µM | 11.9 µM | 7.3 µM | 9.1 µM | 9.5 µM | > 30 µM | > 30 µM | > 30 µM | > 30 µM | > 30 µM
COc1cc(C)c(C(=O)O[C@H]2[C@H](O[C@H]3CC[C@H](C)[C@@H]4[C@@H]3C=C(C)[C@H]3/C(C)=C/CC/C(C)=C/[C@@H]5C=C(C(=O)O)[C@H](C)C[C@]56OC(=O)C(=C6O)C(=O)[C@@]43C)O[C@H](C)[C@@H](O)[C@H]2O)c(O)c1 | 8.6 µM | 18.4 µM | 2.7 µM | 16.3 µM | 2.9 µM | > 30 µM | > 30 µM | > 30 µM | > 30 µM | > 30 µM
COc1cc(C)c(C(=O)O[C@H]2[C@@H](O)[C@@H](O)[C@H](O[C@H]3CC[C@H](C)[C@@H]4[C@@H]3C=C(C)[C@H]3/C(C)=C/CC/C(C)=C/[C@]5(C)C=C(C(=O)O)[C@H](C)C[C@]56OC(=O)C(=C6O)C(=O)[C@@]43C)O[C@@H]2C)c(OC)c1 | 2.3 µM | 4.9 µM | 6.2 µM | 3.9 µM | 3.2 µM | > 30 µM | > 30 µM | > 30 µM | > 30 µM | > 30 µM
COc1cc(C)c(C(=O)N[C@@H]2[C@@H](C)O[C@@H](O[C@H]3CC[C@H](C)[C@@H]4[C@@H]3C=C(C)[C@H]3/C(C)=C/CC/C(C)=C/[C@@H]5C=C(C(=O)O)[C@H](C)C[C@]56OC(=O)C(=C6O)C(=O)[C@@]43C)[C@H](O)[C@]2(C)O)c(O)c1 | 1.9 µM | 6.4 µM | 5.7 µM | 4.4 µM | 5.2 µM | > 30 µM | > 30 µM | > 30 µM | > 30 µM | > 30 µM
COc1cc(C)c(C(=O)O[C@H]2[C@@H](O)[C@H](O[C@H]3CC[C@H](C)[C@@H]4[C@@H]3C=C(C)[C@H]3/C(C)=C/CC/C(C)=C/[C@@H]5C=C(C(=O)O)[C@H](C)C[C@]56OC(=O)C(=C6O)C(=O)[C@@]43C)O[C@H](C)[C@H]2O)c(O)c1 | 5.8 µM | 8.4 µM | 8.9 µM | 7.9 µM | 2.9 µM | > 30 µM | > 30 µM | > 30 µM | > 30 µM | > 30 µM
COc1cc(C)c(C(=O)O[C@H]2[C@@H](O)[C@@H](O)[C@H](O[C@H]3CC[C@H](C)[C@@H]4[C@@H]3C=C(C)[C@H]3/C(C)=C/CC/C(C)=C/[C@@H]5C=C(C(=O)O)[C@H](C)C[C@]56OC(=O)C(=C6O)C(=O)[C@@]43C)O[C@@H]2C)c(O)c1 | 8.3 µM | 15.3 µM | 3.1 µM | 6.3 µM | 5.4 µM | > 30 µM | > 30 µM | > 30 µM | > 30 µM | > 30 µM
CC1=C[C@H]2[C@@H]([C@@H](C)CC[C@@H]2O)[C@]2(C)C(=O)C3=C(O)[C@@]4(C[C@@H](C)C(C(=O)O)=C[C@H]4/C=C(\C)CC/C=C(\C)[C@H]12)OC3=O | > 30 µM | > 30 µM | > 30 µM | > 30 µM | > 30 µM | – | – | – | – | –
CC1=C[C@H]2[C@@H]([C@@H](C)CC[C@@H]2O)[C@]2(C)C(=O)C3=C(O)[C@@]4(C[C@@H](C)C(C(=O)O)=C[C@@]4(C)/C=C(\C)CC/C=C(\C)[C@H]12)OC3=O | > 30 µM | > 30 µM | > 30 µM | > 30 µM | > 30 µM | – | – | – | – | –
CC(=O)O[C@H]1CC[C@H](C)[C@@H]2[C@@H]1C=C(C)[C@H]1/C(C)=C/CC/C(C)=C/[C@@H]3C=C(C)[C@H](C)C[C@]34OC(=O)C(=C4O)C(=O)[C@@]21C | 6.8 µM | 0.8 µM | 3 µM | 0.3 µM | 6.7 µM | > 30 µM | > 30 µM | > 30 µM | > 30 µM | > 30 µM
COc1cccc(OC)c1C(=O)N[C@@H]1C(=O)N2[C@@H]1SC(C)(C)[C@@H]2C(=O)O [METHICILLIN] | > 10 µM | < 10 µM | – | > 10 µM | – | – | – | – | – | –
CN[C@H](CC(C)C)C(=O)N[C@H]1C(=O)N[C@@H](CC(N)=O)C(=O)N[C@H]2C(=O)N[C@H]3C(=O)N[C@H](C(=O)N[C@H](C(=O)O)c4cc(O)cc(O)c4-c4cc3ccc4O)[C@H](O)c3ccc(c(Cl)c3)Oc3cc2cc(c3O[C@@H]2O[C@H](CO)[C@@H](O)[C@H](O)[C@H]2O[C@H]2C[C@](C)(N)[C@H](O)[C@H](C)O2)Oc2ccc(cc2Cl)[C@H]1O [VANCOMYCIN] | – | – | < 10 µM | – | > 10 µM | – | – | – | – | –
